Here are results for 1 molecule from ChEMBL document CHEMBL5614382, “Discovery of a new 1-(phenylsulfonyl)-1H-indole derivative targeting the EphA2 receptor with antiproliferative activity on U251 glioblastoma cell line” (Eur J Med Chem, 2024).

The source made the active and inactive calls. No cut-off for these calls is given here.

This test relates to LOUCY. The test is described as follows: Antiproliferative activity against human LOUCY cells harbouring EPHA2 knockout assessed as reduction in cell viability at 1 to 10 uM measured after 72 hrs by Celltiter-glo ATP based assay. Type of test: functional. To be noted: dose 1-10 µM. For orientation: In ATP-based viability assays light output follows the ATP content of the culture.

Turning to `C[C@H](CCC(=O)N[C@H](CC(=O)O)Cc1cn(S(=O)(=O)c2ccc(C(F)(F)F)cc2)c2ccccc12)[C@H]1CC[C@H]2[C@@H]3CC=C4C[C@@H](O)CC[C@]4(C)[C@H]3CC[C@]12C`, the result was inactive.
